Counter-ions that a name gives are not always drawn.

The data set is described as follows: Self-assembly of CAD with DOPE (50:50) into vesicles, ethanol dilution or lipid film hydration. It counts as physicochemical. The settings on record: CAD:DOPE 50:50. As to the method: Preparation of CAD-DOPE nanoparticles. […] The lipids DOTAP (1,2-dioleoyl-3-trimethylammonium-propane) and DOPE (1,2-dioleoyl-sn-glycero-3-phosphoethanolamine) were purchased from Avanti Polar Lipids (Alabaster, USA).
For the ethanol dilution (ED) method, CADs (10 mg/ml) and DOPE (25 mg/ml) were separately dissolved in absolute ethanol. […] For the lipid film hydration method CAD (10 mg/ml) and DOPE (25 mg/ml) were dissolved in chloroform (50:50 mol ratio) and transferred to a brown glass vial, followed by chloroform evaporation under nitrogen flow. […] The classically used cationic DOTAP-DOPE liposomes (50:50 mol ratio) were likewise prepared via lipid film hydration, as previously reported in literature and diluted in HEPES buffer (pH 7.4, 20 mM) to obtain a final lipid concentration of 3.9 mM. Hydrodynamic diameter, polydispersity index (PDI) and zeta-potential of all formulations were determined via dynamic light scattering (DLS) (Zetasizer Nano, Malvern Instruments, Worcestershire, United Kingdom).
As for `CN(C)CCC=C1c2ccccc2CCc2ccccc21` [Amitriptyline hydrochloride], the “vesicle formation with DOPE” value is “successful vesicle formation”.
In the case of `CNCCCN1c2ccccc2CCc2ccccc21` [Desipramine hydrochloride], the “vesicle formation with DOPE” value was “successful vesicle formation”.
Regarding `Clc1ccc2c(c1)CCc1cccnc1C2=C1CCNCC1` [Desloratadine], the “vesicle formation with DOPE” value is “successful vesicle formation”.
On to `NC1=NCC2c3ccccc3Cc3ccccc3N12` (stereo not drawn) [Epinastine], for which the “vesicle formation with DOPE” value is “did not self-assemble with DOPE”.
Consider `CN(C)CCCN1c2ccccc2CCc2ccccc21` [Imipramine hydrochloride], for which the “vesicle formation with DOPE” value was “successful vesicle formation”.
Turning to `CN1CCC(=C2c3ccccc3CC(=O)c3sccc32)CC1` [Ketotifen], the “vesicle formation with DOPE” value is recorded as “did not self-assemble with DOPE”.

(Values after patent US20250381149A1, “CATIONIC AMPHIPHILIC COMPOUND-BASED NANOPARTICLE COMPOSITIONS” (Universiteit Gent, priority 2022, published 2025).)
